Assays:
Details in all cases: 72 h
Calu-3 [1] = test: relative viability EC50 (midpoint between 100% and the lowest measured viability); higher = less toxic
HepG2 [2] = test: drug sensitivity score (DSS) for viability; higher = more toxic; extreme values may be limits of the assay
U2OS [3] = test: as above
Calu-3 [4] = test: as above
Vero E6 [5] = test: as above
Caco-2 [6] = test: as above
HepG2 [7] = test: cell viability relative to DMSO; higher = less toxic
U2OS [8] = test: as above
Calu-3 [9] = test: as above
Vero E6 [10] = test: as above
Caco-2 [11] = test: as above
HepG2 [12] = test: relative viability EC50 (midpoint between 100% and the lowest measured viability); higher = less toxic
Caco-2 [13] = test: as above
U2OS [14] = test: as above
Vero E6 [15] = test: as above

Row | SMILES | relative viability EC50 (Calu-3 [1]) [µM] | drug sensitivity score (HepG2 [2]) | drug sensitivity score (U2OS [3]) | drug sensitivity score (Calu-3 [4]) | drug sensitivity score (Vero E6 [5]) | drug sensitivity score (Caco-2 [6]) | cell viability (HepG2 [7]; 1 nM) [%] | cell viability (HepG2 [7]; 10 nM) [%] | cell viability (HepG2 [7]; 100 nM) [%] | cell viability (HepG2 [7]; 1000 nM) [%] | cell viability (HepG2 [7]; 10000 nM) [%] | cell viability (U2OS [8]; 1 nM) [%] | cell viability (U2OS [8]; 10 nM) [%] | cell viability (U2OS [8]; 100 nM) [%] | cell viability (U2OS [8]; 1000 nM) [%] | cell viability (U2OS [8]; 10000 nM) [%] | cell viability (Calu-3 [9]; 1 nM) [%] | cell viability (Calu-3 [9]; 10 nM) [%] | cell viability (Calu-3 [9]; 100 nM) [%] | cell viability (Calu-3 [9]; 1000 nM) [%] | cell viability (Calu-3 [9]; 10000 nM) [%] | cell viability (Vero E6 [10]; 1 nM) [%] | cell viability (Vero E6 [10]; 10 nM) [%] | cell viability (Vero E6 [10]; 100 nM) [%] | cell viability (Vero E6 [10]; 1000 nM) [%] | cell viability (Vero E6 [10]; 10000 nM) [%] | cell viability (Caco-2 [11]; 1 nM) [%] | cell viability (Caco-2 [11]; 10 nM) [%] | cell viability (Caco-2 [11]; 100 nM) [%] | cell viability (Caco-2 [11]; 1000 nM) [%] | cell viability (Caco-2 [11]; 10000 nM) [%] | relative viability EC50 (HepG2 [12]) [µM] | relative viability EC50 (Caco-2 [13]) [µM] | relative viability EC50 (U2OS [14]) [µM] | relative viability EC50 (Vero E6 [15]) [µM]
1 | CCn1nc(C2CCN(C(=O)CCO)CC2)nc1-c1cnc(N)c(-c2nnc(C(C)(C)C)o2)n1 [AZD8835] | 1.35 | 4.1 | 2.8 | 5.9 | 2 | 3.2 | 101 | 101 | 95.1 | 78.7 | 64 | 102 | 97.5 | 99 | 85.2 | 70.5 | 102 | 96.3 | 99.1 | 81.4 | 41.8 | 96.9 | 97.9 | 93.7 | 96 | 70 | 94.1 | 93.6 | 91.3 | 86.6 | 64.3 | – | – | – | –
2 | c1ccc2nc(C3=NCCN3)cnc2c1 [BU-239] | > 10 | 0 | – | 0 | – | 0 | 99.2 | 104 | 112 | 104 | 101 | – | – | – | – | – | 101 | 106 | 95.4 | 112 | 99.8 | – | – | – | – | – | 97.1 | 101 | 102 | 102 | 100 | > 10 | > 10 | – | –
3 | CCCCCCNC(=O)n1cc(F)c(=O)[nH]c1=O [Carmofur] | > 10 | 3.7 | 3.1 | 0 | 1.4 | 1.5 | 108 | 104 | 102 | 85.5 | 63.6 | 103 | 96.5 | 102 | 94.8 | 55.9 | 89.8 | 102 | 100 | 101 | 93.8 | 104 | 99.4 | 102 | 102 | 67.1 | 106 | 92 | 94.1 | 91.7 | 74.1 | – | – | – | –
4 | C[C@@H]1C[C@H]2[C@@H]3CCC4=CC(=O)C=C[C@]4(C)[C@@]3(F)[C@@H](O)C[C@]2(C)[C@@]1(O)C(=O)COP(=O)(O)O [DEXAMETHASONE SODIUM PHOSPHATE] | > 10 | 0 | 0 | 0 | – | 0 | 111 | 108 | 100 | 97.8 | 93.6 | 99.8 | 98.8 | 97.7 | 95.8 | 95.7 | 106 | 107 | 89.9 | 105 | 90 | – | – | – | – | – | 95.9 | 88 | 99.7 | 96.2 | 97.5 | > 10 | > 10 | > 10 | –
5 | C[C@H](N)C(=O)O [L-alanine] | > 10 | – | 0 | 0.2 | 0 | 0 | – | – | – | – | – | 94.5 | 102 | 104 | 105 | 96.3 | 102 | 94.3 | 99.6 | 106 | 84.2 | 104 | 103 | 106 | 98.9 | 104 | 102 | 96.6 | 99.4 | 106 | 105 | – | > 10 | > 10 | > 10
6 | CN(C)CCOc1cc(-c2cn[nH]c2)ccc1NC(=O)C1COc2ccccc2O1 (stereo unspecified) [SR-3677] | > 10 | 1.1 | 0.8 | 0 | 3.3 | 0 | 99.3 | 108 | 101 | 86 | 88.4 | 99.8 | 101 | 95.6 | 98.6 | 79.6 | 102 | 93.4 | 99.4 | 148 | 134 | 96.5 | 95.9 | 95.7 | 81.4 | 68.8 | 100 | 95.6 | 105 | 105 | 94.9 | > 10 | > 10 | > 10 | –
7 | COc1cc2ncnc(Nc3ccc(O)c(Br)c3)c2cc1OC [WHI-P154] | 1.29 | 2.7 | 0.4 | 7.2 | 8.2 | 3.4 | 108 | 102 | 101 | 89.7 | 70 | 103 | 101 | 99.5 | 93.1 | 86.3 | 106 | 103 | 94.3 | 72.6 | 28.6 | 101 | 98.4 | 82.8 | 68 | 35.6 | 95.8 | 96.6 | 89.8 | 83.6 | 68.8 | – | – | > 10 | 0.642

From the supplement of paper PMC13380429
